In patent US20150087627A1, “COMBINATION OF KINASE INHIBITORS AND USES THEREOF” (Intellikine LLC, priority 2011, published 2015):

Legend:
PTEN mutant cells = assay: Western blot of Akt, S6 and 4EBP phosphorylation in PTEN mutant cells (FIG. 6B); type: cell-based
KRAS/PIK3CA colon model = KRAS/PIK3CA colon model (FIG. 19); type: in vivo
[1] = tested on: PI3 kinase signaling pathway in MDA-MB-361, HCC-1419, NCI-H1048; assay: Cellular signaling immunoblot in human tumor cell lines; type: cell-based; conditions: Compound B 5-100 nM, Compound A 1 and 3 μM, 2 or 24 hours, Western blot, FIG. 15
Description: Compound A was synthesized at Intellikine and was supplied as a stock of 10 mM in 100% DMSO and diluted in the respective cell line's growth media.
Prior to treatment, cells were plated at 2×10^5 cells/well in 12-well plates in normal growth media and grown to 80% confluence.
Media was aspirated, cells were washed with 1×PBS, Ice cold 1× Cell Lysis Buffer was prepared from 10× stock and 100 μM 4-(2-Aminoethyl)benzenesulfonyl fluoride hydrochloride (AEBSF) and 1 mM sodium orthovanadate […] was added. Cells were lysed by adding 1× Cell Lysis Buffer (100 μL per well of 12-well plate of cells). Cells incubated on ice for 20 to 30 minutes to allow complete lysis, and lysates were transferred to microcentrifuge tubes, sonicated for 10 seconds, and subjected to microcentrifugation at 14,000×g for 10 minutes at 4° C. Cleared supernatants were transferred to fresh tubes, and stored at −20° C. for Western blot analysis. […] Molecular weight markers were loaded, the gel electrophoresed at 200V for 40 minutes.
The gels were electrotransferred to nitrocellulose membranes, and incubated in blocking buffer (Tris buffered saline plus 0.5% Tween-20 (TBS/T)+5% bovine serum albumin (BSA)) for 1 hour at room temperature. […]

[2] = Plasma insulin in nude mice (Example 41); type: in vivo, Mus musculus; conditions: 120 minutes after the last dose (Day 28)
Description: Insulin was measured using Mesoscale Discovery's Mouse/Rat Insulin Kit (Rockville, Md., USA). Plasma samples collected at 120 minutes post last dose were thawed on ice and reagents from the kit were brought to room temperature. 150 μL of Blocker A Solution was added to each well, the plates were covered, and then incubated on a plate shaker (300-1000 rpm) for 1 hour at room temperature. After the first incubation, the wells were washed three times with phosphate buffered saline+Tween 20 (PBS-T), and then 40 μL of 1× Detection Antibody Solution followed by 10 μL of unknown neat samples or standards were added to the wells in duplicate. The plate was then covered and incubated on a plate shaker (300-1000 rpm) for 2 hours at room temperature. Following the second incubation, the wells were washed three times with PBS-T, and then 150 μL of 1× Read Buffer T was added to each well. The plates were immediately analyzed on the SECTOR Imager using the MSD Discovery Workbench software (Meso Scale Discovery). A 4-parameter logisitic model was utilized by the software to determine the concentrations of the unknown samples based on the standard curve it generated.

[3] = tested on: HCT-116 human colorectal cancer xenografts; assay: Antitumor activity, HCT-116 xenografts (Example 44); type: in vivo, Mus musculus; conditions: Day 21
Description: Compound A was prepared in PEG400 (TCAL, San Diego, Calif., USA) every 7 days and stored at room temperature, shielded from light. The vehicle used in this study was PEG400 (Sigma, St. Louis, Mo., USA).
Low passage (passage number 8) HCT-116 cells (American Type Culture Collection ATCC, Manassas, Va., USA) were grown in McCoy's 5A (ATCC) media with 10% fetal bovine serum (FBS) (PAA Laboratories Pty Ltd, Morningside, Queensland, Australia) and supplied at a concentration of 5.0×10^7 cells/mL. HCT-116 cells (5.0×10^6/animal, 0.1-mL injection volume) were implanted SC into the flank of female athymic nude mice. The animals used in this study are described in the following table.
Female 9 to 10-week-old female Foxn1 nu Hsd:Athymic nude mice were inoculated SC in the flank with 5.0×10^6 HCT-116 cells. Tumor growth was monitored with vernier calipers. The MTV was calculated using the formula V=W^2×L/2. […] Tumor growth and body weight were measured twice per week. Percent TGI and body weight change were calculated on Day 21 while animals were on treatment. […] Antitumor activity was determined by calculating the percent TGI using Equation 1: % tumor growth inhibition (TGI)=(mean tumor volume [MTV] of the control group−MTV of a treated group)/MTV of the control group×100. […]
Drug combinations were assessed for synergy using observed AUC values. […]

Row | SMILES | inhibition of Akt, S6, and 4EBP phosphorylation (PTEN mutant cells) | activity in a KRAS/PIK3CA colon model (KRAS/PIK3CA colon model) | inhibition of phosphorylation of downstream targets AKT, S6, 4E-BP1 [1] | Mean Plasma Insulin at 2 hr. ([2]; 60 mg/kg QD) | Plasma Insulin Fold Over Control ([2]; 60 mg/kg QD) | Mean Plasma Insulin at 2 hr. ([2]; 70 mg/kg QD 3on/4off) | Plasma Insulin Fold Over Control ([2]; 70 mg/kg QD 3on/4off) | Mean Plasma Insulin at 2 hr. ([2]; 140 mg/kg QD 3on/4off) | Plasma Insulin Fold Over Control ([2]; 140 mg/kg QD 3on/4off) | Mean Plasma Insulin at 2 hr. ([2]; 210 mg/kg QW) | Plasma Insulin Fold Over Control ([2]; 210 mg/kg QW) | TGI ([3]; 120 mg/kg PO QD for 21 days) | Mean Plasma Insulin at 2 hr. ([2]; 0.3 mg/kg QD) | Mean Plasma Insulin at 2 hr. ([2]; 1.0 mg/kg QD 3on/4off) | Mean Plasma Insulin at 2 hr. ([2]; 3.0 mg/kg QW) | TGI ([3]; 0.6 mg/kg PO QD 5on/2off for 21 days, not significantly different from control)
1 | Nc1nc2cc(-c3ccc4ncc(C(=O)N5CCOCC5)n4c3)ccc2o1 [Compound A] | not | not effective | potently inhibited | 0.7 ng/mL | 1.47 fold | 1.51 ng/mL | 3.16 fold | 2.39 ng/mL | 5.01 fold | 3.96 ng/mL | 8.29 fold | 8.2% | – | – | – | –
2 | CC(C)n1nc(-c2ccc3oc(N)nc3c2)c2c(N)ncnc21 [Compound B] | selective inhibition | not effective | potently inhibited | – | – | – | – | – | – | – | – | – | 3.74 ng/mL | 2.83 ng/mL | 5.94 ng/mL | 4.5%
